# Assay results from patent US8822697B2, “Paramagnetic polynuclear metal complex having high self-relaxation rate, preparation method thereof, and contrast medium containing same” (Kyungpook National University Industry-Academic Cooperation …, priority 2009, dated 2014).
# What was measured:
# [1] = Stability constant and pM value for calcium; format: physicochemical; conditions: for {log KCaL(PH 7.4)}: 25° C., μ = 0.10M (KCl); for pCa: pM = −log[Mn+] free at pH 7.4, [Mn+] total = 1 μmol/dm3, [L] total = 1.1 μmol/dm3; for [CaL]/[Ca][L]: stability constant, log K (25° C., μ = 0.10M (KCl))
# From the text: (§1) The stability constant (KML) can be defined by the equation of KML=[ML]/[M][L], wherein M is Gd, Ca, Zn, Cu, and L indicates a ligand.
# (§2) The pM value can be defined by the equation of pM=−log [Mn^+] at pH=7.4.
# [M]=1.0 μmol/dm^3, [L]=1.1 μmol/dm^3
# [2] = Stability, conditional stability and selectivity constants and pM value for gadolinium; format: physicochemical; conditions: for log K′sel: conditional stability constant (K′Sel); for log K′sel / {log KGdL(PH 7.4)} / [log Ksel(Gd/Ca)] / [log Ksel(Gd/Cu)] / [log Ksel(Gd/Zn)]: 25° C., μ = 0.10M (KCl); for pGd: pM = −log[Mn+] free at pH 7.4, [Mn+] total = 1 μmol/dm3, [L] total = 1.1 μmol/dm3; for [log Ksel(Gd/Ca)]: selectivity constant Gd over Ca; for [log Ksel(Gd/Cu)]: selectivity constant Gd over Cu; for [log Ksel(Gd/Zn)]: selectivity constant Gd over Zn; for [GdL]/[Gd][L]: stability constant, log K (25° C., μ = 0.10M (KCl))
# From the text: as §1, §2
# [M]=1.0 μmol/dm^3, [L]=1.1 μmol/dm^3
# [3] = Stability constant and pM value for copper; format: physicochemical; conditions: for {log KCuL(pH 7.4)}: 25° C., μ = 0.10M (KCl); for pCu: pM = −log[Mn+] free at pH 7.4, [Mn+] total = 1 μmol/dm3, [L] total = 1.1 μmol/dm3; for [CuL]/[Cu][L]: stability constant, log K (25° C., μ = 0.10M (KCl))
# From the text: as §1, §2
# [M]=1.0 μmol/dm^3, [L]=1.1 μmol/dm^3
# [4] = Stability constant and pM value for zinc; format: physicochemical; conditions: for {log KZnL(pH 7.4)}: 25° C., μ = 0.10M (KCl); for pZn: pM = −log[Mn+] free at pH 7.4, [Mn+] total = 1 μmol/dm3, [L] total = 1.1 μmol/dm3; for [ZnL]/[Zn][L]: stability constant, log K (25° C., μ = 0.10M (KCl))
# From the text: as §1, §2
# [M]=1.0 μmol/dm^3, [L]=1.1 μmol/dm^3
# [5] = Measurement of protonation equilibrium constants (KiH) of the ligands; conditions: for [H2L]/[HL][H] / [H3L]/[H2L][H] / [H5L][H4L][H] / [HL]/[L][H]: protonation equilibrium constant, log K (25° C., μ = 0.10M (KCl)); for ΣpKa: 25° C., μ = 0.10M (KCl)
# From the text: The protonation equilibrium constant (KiH) can be defined by the equation of KiH═[HiL]/[Hi-1L][H^+], wherein HiL is a protonated ligand (i=1, 2, . . . ).
# [6] = 20 MHz, 298 K; cited from earlier work
# [7] = Measurement of self-relaxation rate (relaxivity) R1 at 1.5 T (64 MHz); format: physicochemical; conditions: inverse recovery method
# Procedure: Thus, the self-relaxation rate is a factor that determines the efficiency of contrast agent in magnetic resonance imaging. T1 (relaxation time) measurements were carried out using an inverse recovery method with a variable […] (TI) at 1.5 T (64 MHz). The magnetic resonance (MR) images were acquired at 35 different T1 values ranging from 50 to 1750 msec. T1 was obtained from the non-linear least square fit of the signal intensity measured at each TI value. Relaxivity (R1) was then calculated as an inverse of relaxation time per mM.
{log KCaL(PH 7.4)} [1],pCa [1],[CaL]/[Ca][L] [1],log K′sel [2],{log KGdL(PH 7.4)} [2],pGd [2],[log Ksel(Gd/Ca)] [2],[log Ksel(Gd/Cu)] [2],[log Ksel(Gd/Zn)] [2],[GdL]/[Gd][L] [2],{log KCuL(pH 7.4)} [3],pCu [3],[CuL]/[Cu][L] [3],{log KZnL(pH 7.4)} [4],pZn [4],[ZnL]/[Zn][L] [4],[H2L]/[HL][H] [5],[H3L]/[H2L][H] [5],[HL]/[L][H] [5],R1 [7] [mM⁻¹ s⁻¹],Structure (SMILES),also measured
4.30,3.30,6.86,19.59,17.03,16.03,12.73,8.66,8.66,19.59,8.42,7.42,10.98,8.37,7.37,10.93,7.59,6.52,9.52,,"O=C(O)CN(CCN(CC(=O)O)CC(=O)NC(Cc1cnc[nH]1)C(=O)O)CCN(CC(=O)O)CC(=O)NC(Cc1cnc[nH]1)C(=O)O (stereo not drawn) [Complex L1, DTPA-bis-amide-histidine]",[H5L][H4L][H] [5]: 3.82
,,,,,,,,,,,,,,,,,,,,"CNC[C@H](O)[C@@H](O)[C@H](O)[C@H](O)CO.CNC[C@H](O)[C@@H](O)[C@H](O)[C@H](O)CO.O=C([O-])CN(CCN(CC(=O)[O-])CC(=O)O)CCN(CC(=O)[O-])CC(=O)O.[Gd+3] [Magnevist, (N-Me-glucamine)2[Gd(DTPA)(H2O)]]",self-relaxation rate [6]: approximately 4.7 mM^−1s^−1
5.11,4.19,7.17,9.03,14.84,13.88,9.68,3.82,4.81,16.85,11.06,10.05,13.03,10.02,9.06,12.04,4.38,3.31,9.37,3.3 ± 0.03,"CNC(=O)CN(CCN(CCN(CC(=O)[O-])CC(=O)NC)CC(=O)[O-])CC(=O)[O-].[Gd+3] [Omniscan, [Gd(DTPA-bismethylamide)(H2O)], reference compound]",self-relaxation rate [6]: 4.4 mM⁻¹ s⁻¹; ΣpKa [5]: 17.06
,,,,,,,,,,,,,,,,,,,5.9 ± 0.03,O.O=C([O-])CN(CCN(CC(=O)[O-])CC(=O)NC(Cc1cnc[nH]1)C(=O)O)CCN(CC(=O)[O-])CC(=O)NC(Cc1cnc[nH]1)C(=O)O.[Gd+3] (stereo not drawn) [[Gd(L1)H2O]],

Structure (SMILES),{log KCaL(PH 7.4)} [1],pCa [1],[CaL]/[Ca][L] [1],log K′sel [2],{log KGdL(PH 7.4)} [2],pGd [2],[log Ksel(Gd/Ca)] [2],[log Ksel(Gd/Cu)] [2],[log Ksel(Gd/Zn)] [2],[GdL]/[Gd][L] [2],{log KCuL(pH 7.4)} [3],pCu [3],[CuL]/[Cu][L] [3],{log KZnL(pH 7.4)} [4],pZn [4],[ZnL]/[Zn][L] [4],[H2L]/[HL][H] [5],[H3L]/[H2L][H] [5],[HL]/[L][H] [5],R1 [7] [mM⁻¹ s⁻¹],also measured
"O=C(O)CC(NC(=O)CN(CCN(CCN(CC(=O)O)CC(=O)NC(CC(=O)O)C(=O)O)CC(=O)O)CC(=O)O)C(=O)O (stereo not drawn) [Complex L2, DTPA-bis-amide-aspartic acid]",4.01,30.1,10.18,10.74,14.93,13.98,10.92,6.34,6.45,21.12,8.59,7.59,14.78,8.48,7.48,14.67,9.42,5.92,11.55,,ΣpKa [5]: 28.93; [H5L][H4L][H] [5]: 2.04
O.O=C([O-])CN(CCN(CC(=O)[O-])CC(=O)NC(CC(=O)O)C(=O)O)CCN(CC(=O)[O-])CC(=O)NC(CC(=O)O)C(=O)O.[Gd+3] (stereo not drawn) [[Gd(L2)H2O]],,,,,,,,,,,,,,,,,,,,6.9 ± 0.04,
